Results reported in US20220249599A1, “TREATMENT OF IMPLANTS WITH ENGINEERED ANTIMICROBIAL AMPHIPHILIC PEPTIDES” (priority 2018, published 2022).
In brackets after ≈: the same amount, converted by molar mass. Where two headings read alike, the source gives them in different places. Ends that are not written are not given here.

Assays:
[1] = system: Pseudomonas aeruginosa ATCC BAA-2109 (MDR); assay type: cell-based; conditions: ATCC BAA-2109
Method: (§1) Each peptide was formulated in PBS buffer prior to testing. Peptides of SEQ ID NO:5 and SEQ ID NO:8 were brought up in 100% DMSO with 0.002% polysorbate-80 at 1.28 mg/mL (40× the highest final test concentration of 32 mcg/mL). Final test concentration of DMSO was 2.5% in the assay at the first dilution for those two compounds.
(§2) Mueller Hinton II broth (MHB II; BD; Lot Nos. 6258541 and 7143896) was used for MIC testing of aerobic organisms. 0.002% polysorbate 80 (P80) was added to the test medium.
(§3) MIC values were determined using a broth microdilution procedure described by CLSI (1, 3). Automated liquid handlers (Multidrop 384, Labsystems, Helsinki, Finland; Biomek 2000 and Biomek FX, Beckman Coulter, Fullerton Calif.) were used to conduct serial dilutions and liquid transfers.
(§4) To prepare the drug mother plates, which would provide the serial peptide dilutions for the replicate daughter plates, the wells of columns 2-12 of standard 96-well microdilution plates (Costar 3795) were filled with 150 µl of the designated diluent for each row of peptide.
(§5) The test articles and comparator compounds ([…] at 40× the highest concentration to be tested) were dispensed into the appropriate wells in column 1. The Biomek 2000 was then used to make 2-fold serial dilutions in the mother plates from column 1 through column 11. The wells of Column 12 contained no drug and served as the organism growth control wells for the assay.
(§6) The daughter plates were loaded with 185 μL per well of MHB II using the Multidrop 384. The daughter plates were completed on the Biomek FX instrument which transferred 5 uL of peptide solution from each well of a mother plate to the corresponding well of each daughter plate in a single step. A standardized inoculum of each test organism was prepared per CLSI methods. The inoculum for each organism was dispensed into sterile reservoirs divided by length (Beckman Coulter), and the Biomek 2000 was used to inoculate the plates. Daughter plates were placed on the Biomek 2000 work surface in reverse orientation so that inoculation took place from low to high drug concentration.
(§7) Plates were stacked 3-4 high, covered with a lid on the top plate, placed in plastic bags, and incubated at 35° C. for 16 to 20 hrs. Following incubation, the microplates were removed from the incubator and viewed from the bottom using a plate viewer. […] The MIC was read and recorded as the lowest concentration of peptide that inhibited visible growth of the organism.

[2] = system: Pseudomonas aeruginosa ATCC 27853 (non-MDR; QC); assay type: cell-based; conditions: ATCC 27853
Method: as §1, §2, §3, §4, §5, §6, §7

[3] = system: Staphylococcus aureus ATCC 29213 (MSSA; QC); assay type: cell-based; conditions: ATCC 29213
Method: as §1, §2, §3, §4, §5, §6, §7

[4] = system: Streptococcus pyogenes ATCC 49399; assay type: cell-based; conditions: ATCC 49399
Method: as §1, §2, §3, §4, §5, §6, §7

[5] = system: Staphylococcus aureus NRS382 (USA100; HA-MRSA); assay type: cell-based; conditions: USA100
Method: as §1, §2, §3, §4, §5, §6, §7

[6] = system: Enterococcus faecalis ATCC 29212 (VSE; QC); assay type: cell-based; conditions: ATCC 29212
Method: as §1, §2, §3, §4, §5, §6, §7

[7] = system: Escherichia coli ATCC BAA-2471 (NDM-1); assay type: cell-based; conditions: ATCC BAA-2471
Method: as §1, §2, §3, §4, §5, §6, §7

[8] = system: Staphylococcus aureus ATCC 43300 (MRSA); assay type: cell-based; conditions: ATCC 43300
Method: as §1, §2, §3, §4, §5, §6, §7

[9] = system: Escherichia coli ATCC 35218 (ESBL); assay type: cell-based; conditions: ATCC 35218
Method: as §1, §2, §3, §4, §5, §6, §7

[10] = system: Enterococcus faecium ATCC 51559 (VRE); assay type: cell-based; conditions: ATCC 51559
Method: as §1, §2, §3, §4, §5, §6, §7

[11] = system: Escherichia coli ATCC 25922 (QC); assay type: cell-based; conditions: ATCC 25922
Method: as §1, §2, §3, §4, §5, §6, §7

[12] = system: Enterococcus faecalis ATCC 700802 (V583 VRE); assay type: cell-based; conditions: ATCC 700802
Method: as §1, §2, §3, §4, §5, §6, §7

[13] = system: Klebsiella pneumoniae ATCC BAA-1705 (KPC); assay type: cell-based; conditions: ATCC BAA-1705
Method: as §1, §2, §3, §4, §5, §6, §7

[14] = system: Acinetobacter baumannii ATCC 19606 (non-MDR); assay type: cell-based; conditions: ATCC 19606
Method: as §1, §2, §3, §4, §5, §6, §7

[15] = system: Streptococcus pneumoniae ATCC 49619 (QC); assay type: cell-based; conditions: ATCC 49619
Method: as §1, §2, §3, §4, §5, §6, §7

[16] = system: Acinetobacter baumannii ATCC BAA-1797 (MDR); test: microbe, parasite or virus in culture; assay type: cell-based
Method: as §1, §2, §3, §4, §5, §6, §7

[17] = system: Enterococcus faecium (n = 104); test: microbe, parasite or virus in culture; conditions: for % R (isolates resistant): CLSI breakpoints
Method: Comparator antibiotics were supplied by Micromyx, and stock solutions were prepared on the first day of testing using solvents recommended by CLSI (1). Stock solutions of all compounds were made at 40× the final testing concentration and stored at −80° C. prior to testing. Information regarding compound source, catalog and lot number, testing concentrations and drug diluent for the comparators and test agent are detailed below in Table 3.
The test organisms evaluated in this study consisted of clinical isolates from the Micromyx Repository and reference isolates from the American Type Culture Collection (ATCC; Manassas, Va.). The clinical isolates were obtained from USA hospitals. Upon initial receipt at Micromyx, the organisms were sub-cultured onto an appropriate agar medium. Following incubation, colonies were harvested from these plates and cell suspensions prepared and frozen at −80° C. with a cryoprotectant. Prior to testing, the isolates were streaked from frozen vials onto Trypticase Soy Agar with 5% sheep blood (Becton Dickenson [BD]; Sparks, MD; Lot Nos. 7173618, 7166759, 7208688, 72144895, 7228505 and Remel Lenexa, Kans. Lot No. 212574). Plates were incubated at 35° C. overnight.
Mueller Hinton II broth (MHB II; BD; Lot Nos. 6258541 and 7143896) was used for MIC testing of aerobic organisms.
as §3
as §5, with “To prepare the drug mother plates, which would provide the serial drug dilutions for the replicate daughter plates, the wells of columns 2-12 of standard 96-well microdilution plates (Costar 3795) were filled with 150 µl of the designated diluent for each row of drug. The test” for “The test”
as §6, with “[…]” for “μL”, “µL” for “uL”, “drug” for “peptide”, “methods (1).” for “methods.”
as §7, with “drug” for “peptide”
Clinical breakpoints to determine percent resistance within a given organism group were obtained from CLSI (3), with the exception of colistin for K. pneumoniae, Enterobacter spp., and E. coli, which are only available from EUCAST.

[18] = system: Staphylococcus aureus (n = 104); test: microbe, parasite or virus in culture; assay type: cell-based; conditions: for % R (isolates resistant): CLSI breakpoints; for MIC range: all methicillin-resistant
Method: (§8) The clinical isolates were obtained from USA hospitals. […] Plates were incubated at 35° C. overnight.

[19] = system: Acinetobacter spp. (n = 104); assay type: cell-based; conditions: Acinetobacter spp. (n = 104), CLSI breakpoints
Method: as §8

[20] = system: Klebsiella pneumoniae (n = 101); assay type: cell-based
Method: as §8

[21] = system: Pseudomonas aeruginosa (n = 109); assay type: cell-based; conditions: Pseudomonas aeruginosa (n = 109), CLSI breakpoints
Method: as §8

[22] = system: Escherichia coli (n = 101); assay type: cell-based; conditions: Escherichia coli (n = 101), CLSI breakpoints, colistin EUCAST
Method: as §8

[23] = system: Enterobacter spp. (n = 102); assay type: cell-based, Enterobacter aerogenes and E. cloacae; conditions: Enterobacter spp. (n = 102); for % R (isolates resistant): CLSI breakpoints, colistin EUCAST
Method: as §8

[24] = Staphylococcus aureus (n = 104)
[25] = Klebsiella pneumoniae (n = 101), CLSI breakpoints, colistin EUCAST

IRRRRRRIRRRRRR [SEQ ID NO: 2]
MIC [1]: 8 µg/mL
MIC [2]: >32 µg/mL
MIC [3]: 16 µg/mL
MIC [4]: 32 µg/mL
MIC [5]: 8 µg/mL
MIC [6]: >32 µg/mL
MIC [7]: 32 µg/mL
MIC [8]: 16 µg/mL
MIC [9]: 16 µg/mL
MIC [10]: 16 µg/mL
MIC [11]: 16 µg/mL
MIC [12]: >32 µg/mL
MIC [13]: >32 µg/mL
MIC [14]: 32 µg/mL
MIC [15]: >32 µg/mL
MIC ([16]; ATCC BAA-1797): >32 µg/mL

VVRVVRRVVRVVRR [SEQ ID NO: 7]
MIC [1]: >32 µg/mL
MIC [2]: >32 µg/mL
MIC [3]: >32 µg/mL
MIC [4]: 16 µg/mL
MIC [5]: >32 µg/mL
MIC [6]: >32 µg/mL
MIC [7]: 16 µg/mL
MIC [8]: >32 µg/mL
MIC [9]: 32 µg/mL
MIC [10]: 16 µg/mL
MIC [11]: >32 µg/mL
MIC [12]: >32 µg/mL
MIC [13]: >32 µg/mL
MIC [14]: >32 µg/mL
MIC [15]: >32 µg/mL
MIC ([16]; ATCC BAA-1797): >32 µg/mL

CN[C@H](CC(C)C)C(=O)N[C@H]1C(=O)N[C@@H](CC(N)=O)C(=O)N[C@H]2C(=O)N[C@H]3C(=O)N[C@H](C(=O)N[C@H](C(=O)O)c4cc(O)cc(O)c4-c4cc3ccc4O)[C@H](O)c3ccc(c(Cl)c3)Oc3cc2cc(c3O[C@@H]2O[C@H](CO)[C@@H](O)[C@H](O)[C@H]2O[C@H]2C[C@](C)(N)[C@H](O)[C@H](C)O2)Oc2ccc(cc2Cl)[C@H]1O [Vancomycin]
MIC50 ([17]; Enterococcus faecium): 1 µg/mL (≈ 0.69 µM)
MIC90 ([17]; Enterococcus faecium): > 32 µg/mL
MIC90 ([17]; Enterococcus faecium (n = 104)): >32 µg/mL
% R (isolates resistant) ([17]; Enterococcus faecium (n = 104)): 47.1%
MIC ([17]; Enterococcus faecium, read-out: Mode (MIC)): > 32 µg/mL
MIC50 ([18]; Staphylococcus aureus): 1 µg/mL (≈ 0.69 µM)
MIC90 ([18]; Staphylococcus aureus): 1 µg/mL (≈ 0.69 µM)
% R (isolates resistant) [18, 24]: 0%
MIC range [18, 24]: 0.5 to 2 µg/mL
MIC ([18]; Staphylococcus aureus, read-out: Mode (MIC)): 1 µg/mL (≈ 0.69 µM)

NC[C@H]1O[C@H](O[C@H]2[C@H](O)[C@@H](O[C@H]3O[C@H](CO)[C@@H](O)[C@H](N)[C@H]3O)[C@H](N)C[C@@H]2N)[C@H](N)C[C@@H]1O [Tobramycin]
% R (isolates resistant) [19]: 49.0%
% R (isolates resistant) [20]: over 60%
% R (isolates resistant) [20, 25]: 59.4%
% R (isolates resistant) [21]: 7.4%
% R (isolates resistant) [22]: 21.7%
MIC range [23]: 0.12 to 64 µg/mL
% R (isolates resistant) [23]: 3.9%

C[C@H]1COc2c(N3CCN(C)CC3)c(F)cc3c(=O)c(C(=O)O)cn1c23 [Levofloxacin]
% R (isolates resistant) [19]: 66.3%
% R (isolates resistant) [20]: over 60%
% R (isolates resistant) [20, 25]: 67.3%
% R (isolates resistant) [21]: 21.1%
% R (isolates resistant) [22]: 46.5%
% R (isolates resistant) ([22]; listed as levofloxacin): ~50%
MIC90 [18, 24]: >8 µg/mL
% R (isolates resistant) [18, 24]: 82.7%
% R (isolates resistant) ([18]; Staphylococcus aureus (n = 104), listed as levofloxacin): Over 80%
% R (isolates resistant) [23]: 4.9%
MIC ([16]; ATCCBAA1797, Acinetobacter baumannii ATCC BAA-1797 (MDR), read-out: MIC): 4 µg/mL (≈ 11.1 µM)

CCC[C@@H]1C[C@@H](C(=O)N[C@@H]([C@H]2O[C@H](SC)[C@H](O)[C@@H](O)[C@H]2O)[C@H](C)Cl)N(C)C1 [Clindamycin]
MIC90 [18, 24]: >16 µg/mL
% R (isolates resistant) [18, 24]: 37.5%

CC(C)(O/N=C(\C(=O)N[C@@H]1C(=O)N2C(C(=O)[O-])=C(C[n+]3ccccc3)CS[C@H]12)c1csc(N)n1)C(=O)O [Ceftazidime]
% R (isolates resistant) [19]: 61.5%
% R (isolates resistant) [21]: 14.6%
% R (isolates resistant) [22]: 33.6%
% R (isolates resistant) [23]: 36.3%

C[C@H]1c2cccc(O)c2C(=O)C2=C(O)[C@]3(O)C(=O)C(C(N)=O)=C(O)[C@@H](N(C)C)[C@@H]3[C@@H](O)[C@@H]21 [Doxycycline]
% R (isolates resistant) ([17]; Enterococcus faecium (n = 104)): 25%
% R (isolates resistant) [18, 24]: 0%
MIC range [18, 24]: 0.06 to 8 µg/mL

CC(=O)NC[C@H]1CN(c2ccc(N3CCOCC3)c(F)c2)C(=O)O1 [Linezolid]
MIC range ([17]; Enterococcus faecium (n = 104)): 1 to 32 µg/mL
% R (isolates resistant) ([17]; Enterococcus faecium (n = 104)): 3.8%
MIC range ([17]; Enterococcus faecium (n = 104), listed as linezolid): 1 to 32 µg/mL
% R (isolates resistant) [18, 24]: 1.9%
MIC range [18, 24]: 1 to 8 µg/mL
